# How the values were obtained:
# [1] = Effect of varying relative humidity on amorphous Dorzolamide hydrochloride (hygroscopicity chamber; LOD by TGA, crystal form by XRD); assay type: physicochemical
# Method: (§1) The scanning parameters are as follows: the range is preferably about 2° to about 40° 2θ over a substantially continuous scan at a rate of about 3° per minute. The accuracy of peak positions is defined as ±0.2° due to experimental differences, such as instrumentations, sample preparations, and the like.
# Thermal Gravimetric Analysis (TGA) is preferably performed with a Mettler Toledo TGA/SDTA 851^e. Sample weights preferably range from about 7 to about 15 mg, the heating rate is preferably about 10° C. per minute in a N2 stream having a flow rate of about 50 ml per minute over a scan range of about 30° to about 250° C.
# Each of a series of 200 mg samples of amorphous Dorzolamide hydrochloride are exposed to a relative humidity (RH) of one of 0, 20, 40, 60, 80, and 100 percent for a period of 5 days at room temperature in a hygroscopicity chamber. The loss on drying (LOD) of the samples is measured by TGA before and after exposure, and the values obtained are plotted against the RH values. In addition, the crystal form of each sample is measured by XRD before and after the exposure.
# [2] = Exposure of amorphous Dorzolamide HCl to about 160° C. for about 15 minutes, crystal form by XRD; assay type: physicochemical; conditions: oven, open glass weighing bottle
# Method: as §1
# [3] = RH 0 %, 5 days, room temperature
# [4] = RH 20 %, 5 days, room temperature
# [5] = RH 40 %, 5 days, room temperature
compound,measurement,setting,value
"CCN[C@H]1C[C@H](C)S(=O)(=O)c2sc(S(N)(=O)=O)cc21.Cl [Amorphous Dorzolamide HCl, 5,6-dihydro-4-(S)-ethylamino-6-(S)-methyl-4H-thieno-[2,3-b]thiopyran-2-sulfonamide-7,7-dioxyde hydrochloride]",Crystal form by XRD,"[1]; Original sample, before exposure",amorphous
same,LOD (%),"[1]; Original sample, before exposure, LOD by TGA",2.7%
same,Crystal form by XRD,[1]; [3],amorphous
same,LOD (%),[1]; [3],2.0%
same,Crystal form by XRD,[1]; [4],amorphous
same,LOD (%),[1]; [4],2.9%
same,Crystal form by XRD,[1]; [5],amorphous
same,LOD (%),[1]; [5],3.8%
same,LOD (%),"[1]; RH 60 %, 5 days, room temperature",0.2%
same,Crystal form by XRD,"[1]; RH 60 %, 5 days, room temperature, hydrochloride",Form II
same,Crystal form by XRD,"[1]; RH 60 %, 5 days, room temperature, listed as Dorzolamide HCl, hydrochloride",transforms to crystal form II
same,LOD (%),"[1]; RH 80 %, 5 days, room temperature",0.2%
same,Crystal form by XRD,"[1]; RH 80 %, 5 days, room temperature, hydrochloride",Form II
same,Crystal form by XRD,"[1]; RH 80 %, 5 days, room temperature, listed as Dorzolamide HCl, hydrochloride",transforms to crystal form II
same,LOD (%),"[1]; RH 100 %, 5 days, room temperature",0.2%
same,Crystal form by XRD,"[1]; RH 100 %, 5 days, room temperature, hydrochloride",Form II
same,Crystal form by XRD,"[1]; RH 100 %, 5 days, room temperature, listed as Dorzolamide HCl, hydrochloride",transforms to crystal form II
same,Crystal form by XRD after heating,[2],"changed the material to the crystalline, anhydrous form II"

# — US20060173068A1, “Amorphous and crystalline forms of dorzolamide hydrochloride and processes of making same” (priority 2005, published 2006)
